# Experimental data published in PubChem BioAssay (NCI).
#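 Method: 48-hour compound exposure of cells in 96-well plates, five concentrations, linear interpolation of endpoints. Here, GI50 denotes the concentration required for 50% inhibition of growth. TGI marks complete inhibition of growth.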
# Tests used:
# Test in all cases: NCI anticancer screen, dose series, 48 h
# UACC-62 melanoma = tested on: UACC-62 melanoma
# NCI-H226 lung = tested on: NCI-H226 lung
# LOX IMVI melanoma = tested on: LOX IMVI melanoma
# NCI-H23 lung = tested on: NCI-H23 lung
# UO-31 renal = tested on: UO-31 renal
# RXF-631 renal = tested on: RXF-631 renal
# SNB-19 CNS = tested on: SNB-19 CNS
# M14 melanoma = tested on: M14 melanoma
# ACHN renal = tested on: ACHN renal
# K-562 leukemia = tested on: K-562 leukemia
# DMS 114 small cell lung = tested on: DMS 114 small cell lung
# SK-MEL-28 melanoma = tested on: SK-MEL-28 melanoma
# KM12 colon = tested on: KM12 colon
# OVCAR-4 ovarian = tested on: OVCAR-4 ovarian
# NCI-H460 lung = tested on: NCI-H460 lung
# SF-295 CNS = tested on: SF-295 CNS
# HL-60(TB) leukemia = tested on: HL-60(TB) leukemia
# HT29 colon = tested on: HT29 colon
# CCRF-CEM leukemia = tested on: CCRF-CEM leukemia
# HCC-2998 colon = tested on: HCC-2998 colon
# IGROV1 ovarian = tested on: IGROV1 ovarian
# OVCAR-3 ovarian = tested on: OVCAR-3 ovarian
# KM20L2 colon = tested on: KM20L2 colon
# 786-0 renal = tested on: 786-0 renal
# CAKI-1 renal = tested on: CAKI-1 renal
# A498 renal = tested on: A498 renal
# SF-539 CNS = tested on: SF-539 CNS
# SN12C renal = tested on: SN12C renal
# SNB-78 CNS = tested on: SNB-78 CNS
# DMS 273 small cell lung = tested on: DMS 273 small cell lung
# HCT-116 colon = tested on: HCT-116 colon
# SR leukemia = tested on: SR leukemia
# MOLT-4 leukemia = tested on: MOLT-4 leukemia
# HCT-15 colon = tested on: HCT-15 colon
# OVCAR-8 ovarian = tested on: OVCAR-8 ovarian
# NCI-H522 lung = tested on: NCI-H522 lung
# UACC-257 melanoma = tested on: UACC-257 melanoma
# SK-MEL-2 melanoma = tested on: SK-MEL-2 melanoma
# A549 NSCLC = tested on: A549 NSCLC
# LXFL 529 NSCLC = tested on: LXFL 529 NSCLC
# SF-268 CNS = tested on: SF-268 CNS
# HOP-62 NSCLC = tested on: HOP-62 NSCLC
# SW-620 colon = tested on: SW-620 colon
# U251 CNS = tested on: U251 CNS
# RPMI-8226 leukemia = tested on: RPMI-8226 leukemia
# COLO 205 colon = tested on: COLO 205 colon
# EKVX NSCLC = tested on: EKVX NSCLC
# SNB-75 CNS = tested on: SNB-75 CNS
# SK-OV-3 ovarian = tested on: SK-OV-3 ovarian
# TK-10 renal = tested on: TK-10 renal
# HOP-92 NSCLC = tested on: HOP-92 NSCLC
# MALME-3M melanoma = tested on: MALME-3M melanoma
# M19-MEL melanoma = tested on: M19-MEL melanoma
# DLD-1 colon = tested on: DLD-1 colon
# RXF 393 renal = tested on: RXF 393 renal
# SK-MEL-5 melanoma = tested on: SK-MEL-5 melanoma
# OVCAR-5 ovarian = tested on: OVCAR-5 ovarian
# XF 498 CNS = tested on: XF 498 CNS
compound,measurement,setting,value
COc1ccc2c(CCNC(=O)/C=C/c3ccccc3)c(C(C)=O)[nH]c2c1[N+](=O)[O-],TGI,UACC-62 melanoma,36.1 µM
same,TGI,NCI-H226 lung,46.7 µM
same,TGI,LOX IMVI melanoma,27.3 µM
same,TGI,NCI-H23 lung,58 µM
same,TGI,UO-31 renal,> 100 µM
same,TGI,RXF-631 renal,28.4 µM
same,TGI,SNB-19 CNS,> 100 µM
same,TGI,M14 melanoma,> 100 µM
same,TGI,ACHN renal,> 100 µM
same,TGI,K-562 leukemia,> 100 µM
same,TGI,DMS 114 small cell lung,> 100 µM
same,TGI,SK-MEL-28 melanoma,> 100 µM
same,TGI,KM12 colon,> 100 µM
same,TGI,OVCAR-4 ovarian,> 100 µM
same,TGI,NCI-H460 lung,> 100 µM
same,TGI,SF-295 CNS,12.7 µM
same,TGI,HL-60(TB) leukemia,> 100 µM
same,TGI,HT29 colon,> 100 µM
same,TGI,CCRF-CEM leukemia,> 100 µM
same,TGI,HCC-2998 colon,> 100 µM
same,TGI,IGROV1 ovarian,56.2 µM
same,TGI,OVCAR-3 ovarian,> 100 µM
same,TGI,KM20L2 colon,> 100 µM
same,TGI,786-0 renal,> 100 µM
same,TGI,CAKI-1 renal,44.5 µM
same,TGI,A498 renal,76.5 µM
same,TGI,SF-539 CNS,61 µM
same,TGI,SN12C renal,> 100 µM
same,TGI,SNB-78 CNS,> 100 µM
same,TGI,DMS 273 small cell lung,29.2 µM
same,TGI,HCT-116 colon,87.2 µM
same,TGI,SR leukemia,> 100 µM
same,TGI,MOLT-4 leukemia,> 100 µM
same,TGI,HCT-15 colon,> 100 µM
same,TGI,OVCAR-8 ovarian,> 100 µM
same,TGI,NCI-H522 lung,18.9 µM
same,TGI,UACC-257 melanoma,> 100 µM
same,TGI,SK-MEL-2 melanoma,> 100 µM
same,TGI,A549 NSCLC,> 100 µM
same,TGI,LXFL 529 NSCLC,> 100 µM
same,TGI,SF-268 CNS,9.08 µM
same,TGI,HOP-62 NSCLC,76.2 µM
same,TGI,SW-620 colon,> 100 µM
same,TGI,U251 CNS,> 100 µM
same,TGI,RPMI-8226 leukemia,> 100 µM
same,TGI,COLO 205 colon,> 100 µM
N#Cc1ccc(Oc2cccc(Oc3ccccc3)c2)cc1C#N,GI50,UACC-62 melanoma,> 100 µM
same,TGI,UACC-62 melanoma,> 100 µM
same,TGI,NCI-H23 lung,> 100 µM
same,TGI,EKVX NSCLC,> 100 µM
same,TGI,UO-31 renal,61.6 µM
same,TGI,RXF-631 renal,> 100 µM
same,TGI,SNB-19 CNS,> 100 µM
same,GI50,M14 melanoma,> 100 µM
same,TGI,M14 melanoma,> 100 µM
same,TGI,SNB-75 CNS,31.6 µM
same,TGI,ACHN renal,> 100 µM
same,TGI,K-562 leukemia,> 100 µM
same,TGI,DMS 114 small cell lung,> 100 µM
same,TGI,SK-MEL-28 melanoma,> 100 µM
same,GI50,KM12 colon,> 100 µM
same,TGI,KM12 colon,> 100 µM
same,TGI,OVCAR-4 ovarian,> 100 µM
same,TGI,NCI-H460 lung,> 100 µM
same,TGI,SF-295 CNS,> 100 µM
same,TGI,HL-60(TB) leukemia,> 100 µM
same,GI50,HT29 colon,> 100 µM
same,TGI,HT29 colon,> 100 µM
same,TGI,CCRF-CEM leukemia,> 100 µM
same,GI50,HCC-2998 colon,> 100 µM
same,TGI,HCC-2998 colon,> 100 µM
same,GI50,IGROV1 ovarian,> 100 µM
same,TGI,IGROV1 ovarian,> 100 µM
same,GI50,SK-OV-3 ovarian,> 100 µM
same,TGI,SK-OV-3 ovarian,> 100 µM
same,TGI,OVCAR-3 ovarian,> 100 µM
same,GI50,KM20L2 colon,> 100 µM
same,TGI,KM20L2 colon,> 100 µM
same,GI50,786-0 renal,> 100 µM
same,TGI,786-0 renal,> 100 µM
same,GI50,TK-10 renal,> 100 µM
same,TGI,TK-10 renal,> 100 µM
same,GI50,CAKI-1 renal,> 100 µM
same,TGI,CAKI-1 renal,> 100 µM
same,TGI,A498 renal,> 100 µM
same,TGI,SF-539 CNS,> 100 µM
same,GI50,HOP-92 NSCLC,> 100 µM
same,TGI,HOP-92 NSCLC,> 100 µM
same,GI50,SN12C renal,> 100 µM
same,TGI,SN12C renal,> 100 µM
same,GI50,MALME-3M melanoma,> 100 µM
same,TGI,MALME-3M melanoma,> 100 µM
same,GI50,M19-MEL melanoma,> 100 µM
same,TGI,M19-MEL melanoma,> 100 µM
same,TGI,HCT-116 colon,> 100 µM
same,TGI,MOLT-4 leukemia,> 100 µM
same,GI50,OVCAR-8 ovarian,> 100 µM
same,TGI,OVCAR-8 ovarian,> 100 µM
same,TGI,NCI-H522 lung,> 100 µM
same,GI50,DLD-1 colon,> 100 µM
same,TGI,DLD-1 colon,> 100 µM
same,TGI,SK-MEL-2 melanoma,> 100 µM
same,TGI,RXF 393 renal,> 100 µM
same,TGI,A549 NSCLC,> 100 µM
same,TGI,LXFL 529 NSCLC,> 100 µM
same,TGI,SF-268 CNS,> 100 µM
same,GI50,HOP-62 NSCLC,> 100 µM
same,TGI,HOP-62 NSCLC,> 100 µM
same,TGI,SW-620 colon,> 100 µM
same,TGI,SK-MEL-5 melanoma,> 100 µM
same,TGI,U251 CNS,> 100 µM
same,GI50,COLO 205 colon,> 100 µM
same,TGI,COLO 205 colon,> 100 µM
same,GI50,OVCAR-5 ovarian,> 100 µM
same,TGI,OVCAR-5 ovarian,> 100 µM
Cc1ncc(CCl)c(CCl)c1O,TGI,UACC-62 melanoma,> 100 µM
same,TGI,NCI-H226 lung,> 100 µM
same,TGI,NCI-H23 lung,> 100 µM
same,TGI,UO-31 renal,> 100 µM
same,TGI,RXF-631 renal,> 100 µM
same,TGI,M14 melanoma,> 100 µM
same,TGI,XF 498 CNS,> 100 µM
same,TGI,SNB-75 CNS,> 100 µM
same,TGI,ACHN renal,> 100 µM
same,TGI,K-562 leukemia,> 100 µM
same,TGI,DMS 114 small cell lung,> 100 µM
same,TGI,SK-MEL-28 melanoma,> 100 µM
same,TGI,OVCAR-4 ovarian,> 100 µM
same,TGI,HL-60(TB) leukemia,> 100 µM
same,TGI,CCRF-CEM leukemia,> 100 µM
same,TGI,HCC-2998 colon,> 100 µM
same,TGI,IGROV1 ovarian,> 100 µM
same,TGI,SK-OV-3 ovarian,> 100 µM
same,TGI,786-0 renal,> 100 µM
same,TGI,CAKI-1 renal,> 100 µM
same,TGI,A498 renal,> 100 µM
same,TGI,SF-539 CNS,> 100 µM
same,TGI,HOP-92 NSCLC,> 100 µM
same,TGI,SN12C renal,> 100 µM
same,TGI,MALME-3M melanoma,> 100 µM
same,TGI,DMS 273 small cell lung,> 100 µM
same,TGI,M19-MEL melanoma,> 100 µM
same,TGI,HCT-116 colon,> 100 µM
same,TGI,SR leukemia,> 100 µM
same,TGI,MOLT-4 leukemia,> 100 µM
same,TGI,NCI-H522 lung,> 100 µM
same,TGI,DLD-1 colon,> 100 µM
same,TGI,SK-MEL-2 melanoma,> 100 µM
same,TGI,LXFL 529 NSCLC,> 100 µM
same,TGI,SF-268 CNS,> 100 µM
same,TGI,HOP-62 NSCLC,> 100 µM
same,TGI,RPMI-8226 leukemia,> 100 µM
same,TGI,COLO 205 colon,> 100 µM
COc1cc(/C=C\c2ccc(Br)cc2)cc(OC)c1OC,TGI,UACC-62 melanoma,> 100 µM
same,TGI,EKVX NSCLC,> 100 µM
same,TGI,RXF-631 renal,> 100 µM
same,TGI,SNB-19 CNS,> 100 µM
same,TGI,ACHN renal,> 100 µM
same,TGI,K-562 leukemia,36.8 µM
same,TGI,DMS 114 small cell lung,69.1 µM
same,TGI,KM12 colon,> 100 µM
same,TGI,OVCAR-4 ovarian,64.1 µM
same,TGI,HL-60(TB) leukemia,0.0032 µM
same,TGI,HT29 colon,15 µM
same,TGI,CCRF-CEM leukemia,13.8 µM
same,GI50,HCC-2998 colon,0.0192 µM
same,TGI,HCC-2998 colon,26.8 µM
same,TGI,IGROV1 ovarian,> 100 µM
same,TGI,SK-OV-3 ovarian,> 100 µM
same,TGI,786-0 renal,13.7 µM
same,TGI,CAKI-1 renal,18.5 µM
same,TGI,SF-539 CNS,0.00366 µM
same,TGI,HOP-92 NSCLC,> 100 µM
same,TGI,SN12C renal,> 100 µM
same,TGI,MALME-3M melanoma,34.8 µM
same,TGI,DMS 273 small cell lung,13.8 µM
same,GI50,M19-MEL melanoma,0.363 µM
same,TGI,M19-MEL melanoma,> 100 µM
same,TGI,HCT-116 colon,> 100 µM
same,TGI,SR leukemia,10.6 µM
same,TGI,MOLT-4 leukemia,0.326 µM
same,TGI,HCT-15 colon,34.7 µM
same,TGI,NCI-H522 lung,0.00151 µM
same,TGI,UACC-257 melanoma,11.3 µM
same,TGI,DLD-1 colon,> 100 µM
same,TGI,SK-MEL-2 melanoma,> 100 µM
same,TGI,A549 NSCLC,> 100 µM
same,TGI,LXFL 529 NSCLC,> 100 µM
same,TGI,SF-268 CNS,54 µM
same,TGI,HOP-62 NSCLC,23.9 µM
same,TGI,SW-620 colon,> 100 µM
same,TGI,SK-MEL-5 melanoma,0.109 µM
same,TGI,U251 CNS,0.012 µM
same,TGI,RPMI-8226 leukemia,27.6 µM
same,TGI,COLO 205 colon,1.21 µM
same,TGI,OVCAR-5 ovarian,96.8 µM
